Data: a melting point compilation (Tetko et al.)

melting point	SMILES
206 to 208 °C	NNC(=O)c1cc2ccccc2cc1O
76 to 80 °C	O=C(Cl)c1ccc(-c2ccccc2)s1
144 °C	O=c1n(-c2ccccc2)c(=O)n2n1C1OC3CCC1C32 (centres undefined)
86 °C	Cc1ccccc1-c1cc2ccccc2c(=O)o1
138 °C	Cc1ccc2c(-c3ccccc3)nc(=O)n(C(C)C)c2c1
106 to 109 °C	Nc1cccc(CN2CCCCC2)c1
102 °C	COc1c(OC)c(OC(C)=O)c2cc(F)ccc2c1OC(C)=O
105 °C	O=C(OOC(=O)c1ccccc1)c1ccccc1
56 to 57 °C	Clc1cc(Cl)nc(Cc2ccccc2)n1
95 °C	Brc1ccc2ccc3cccc4ccc1c2c34
235 to 237 °C	CC(=O)Nc1ccccc1CCCCc1ccccc1NC(C)=O
104 to 106 °C	O=C(CCl)Nc1ccc(Oc2ccccc2)cc1
320 to 325 °C	Oc1noc2nc3ccccc3nc12
167 °C	Cc1cc(C(=O)O)ccc1F
295 °C	NC(=O)c1nn(-c2ccccc2)c2ncnc(N)c12
198 °C	CCOC(=O)CNC(=O)c1cn(CC)c2nc(C)ccc2c1=O
60 °C	Cc1ccccc1OC(=O)Oc1ccccc1C
100 °C	OCc1cc2ccccc2s1
171 °C	CC1(C)C2CCC1(C)C(O)C2C(c1ccccc1)c1ccccc1 (centres undefined)
28 °C	Cc1nc(-c2ccccc2)c(C)s1
159 °C	Cc1ccc2nc3c(ccc4ccccc43)c(C)c2c1
200 °C	CC(=Nc1cccc(N)c1)c1c(O)c2ccccc2n(-c2ccccc2)c1=O

melting point	SMILES
134 °C	c1ccc(OCc2nnc3sc(-c4cccc5ccccc45)nn23)cc1
125 to 129 °C	Cc1ccccc1CC(NC(=O)OC(C)(C)C)C(=O)O (racemic)
103 to 105 °C	O=C(O)C1Cc2ccccc2N1C(=O)OCc1ccccc1 (centres undefined)
165 °C	CC(CCc1ccc(CCC(C)OC(=O)Nc2ccccc2)cc1)OC(=O)Nc1ccccc1 (centres undefined)
171 °C	Cc1ccc(C(=O)/C=C/c2ccc(-c3ccc(Cl)cc3)o2)o1
151 °C	Nc1ccc(C=CC(=O)c2ccccc2)cc1
123 °C	COc1ccccc1-c1nnc2n1NCS2
280 °C	CC(=O)Oc1c(-c2ccc(-c3[nH]c4cc([N+](=O)[O-])ccc4c3OC(C)=O)cc2)[nH]c2cc([N+](=O)[O-])ccc12
174 °C	O=C(OC1C(=O)OC(=O)C1OC(=O)c1ccccc1)c1ccccc1 (centres undefined)
-11.3 °C	CC(C)(C)c1cccc2ccccc12
91.5 °C	COc1cc(C(=O)c2ccc(Cl)cc2)cc(OC)c1OCCN1CCOCC1
197 to 198 °C	NC(=O)NN=C(O)/C=C/c1ccccc1
245 °C	O=C1c2cccc3cccc(c23)C(=O)N1O
86 to 89 °C	CC(C)(C)OC(=O)ON=C(C#N)c1ccccc1
257 °C	Cn1ncc2c(NCCNC3=CC(=O)c4ccccc4C3=O)ncnc21
73 °C	COc1ccsc1CN(C(=O)CCl)c1c(C)cccc1C
159 °C	O=C(NC(Cc1ccccc1)c1ccccc1)c1cccnc1 (centres undefined)
179 °C	COc1ccc(-c2ccc(S(=O)(=O)NC(C)C(=O)O)cc2)cc1 (centres undefined)
110 to 112 °C	CCOC(=O)c1cnc2c(c(C)nn2C)c1Oc1ccc(F)cc1
37 to 39 °C	O=C(Cl)c1ccccc1Oc1ccccc1
318 to 320 °C	O=C(O)c1ccc(-n2cncn2)cc1
101 °C	Cc1ccc(S(=O)(=O)n2cccc2)cc1

melting point	SMILES
389 °C	Nc1nnc(-c2ccccc2)c(Nc2ccc(I)cc2)n1
67 to 73 °C	COC(=O)[C@H](CSCc1ccccc1)NC(C)=O
152 °C	O=C(Nc1ccccc1)OCC1(COC(=O)Nc2ccccc2)CCCC1
83 to 84 °C	Cc1oc(-c2ccccc2)nc1CCl
68 °C	CC(CN(C)C)CN1c2ccccc2Sc2ccccc21 (centres undefined)
244 to 245 °C	O=C(O)c1cccc(-c2cncnc2)c1
335 to 337 °C	Cc1cc(C)c2c(=O)n(-c3ccc(Br)cc3)c(S)nc2n1
199 to 202 °C	O=[N+]([O-])c1ccc(S(=O)(=O)OCc2cccc(OS(=O)(=O)c3ccc([N+](=O)[O-])cc3)c2)cc1
124 to 131 °C	CSCN1C(=O)NC(c2ccccc2)(c2ccccc2)C1=O
170 °C	CNCC(O)c1cccc(O)c1 (centres undefined)
210 to 214 °C	COc1ccc2c(-c3ccccc3)c(-c3ccccc3)[nH]c2c1
218 °C	Cc1ccc(NN=C2C(=O)NN=C2c2c(O)c3ccccc3n(C)c2=O)cc1
197 to 201 °C	CC(=O)NC(C(=O)O)c1ccccc1 (centres undefined)
87 °C	O=C(O)C1(c2ccccc2)CC1
130 °C	NNC(=S)NCc1ccccc1
139 °C	O=Cc1ccc(O)c(Cl)c1
119 °C	CC1=NN(c2ccc([N+](=O)[O-])cc2)C(=O)C1[N+](=O)[O-] (centres undefined)
138 °C	c1ccc2c(c1)c(Cc1cn(CN3CCCCC3)c3ccccc13)cn2CN1CCCCC1
192 °C	NS(=O)(=O)c1cc(C(=O)c2ccc(O)cc2)cs1
155 to 156 °C	Nc1nc(Br)c2ccccc2c1Cc1ccccc1
227 °C	CC(=O)Nc1cc([N+](=O)[O-])c(C=Cc2ccccc2)cc1C=Cc1ccccc1

Further lines, the compound ahead of its results:

SMILES	melting point
N#CCS(=O)(=O)c1ccc(Cl)cc1	171 °C
Clc1cc(Cl)c2nsnc2c1Cl	122 °C
O=[N+]([O-])/C(Br)=C/c1cccc(/C=C(\Br)[N+](=O)[O-])c1	153 °C
CCN(CC)CC(=O)Nc1sc2c(c1C#N)CCCC2	170 to 171 °C
COC(=O)c1scc(C)c1N	86 to 87 °C
CC(=O)Nc1cc(C)no1	161 to 162 °C
O=S(=O)(O)c1cccnc1	300 °C
CC(C)C1=C(O)C(=O)C2=C(C1=O)C(O)CC1C(C)(C)CCCC21C (centres undefined)	214 °C
CCC(C)c1cccc(C(C)CC)c1O (centres undefined)	-42 °C
CCOC(=O)C(CCC(=O)O)(CCC(=O)O)C(C)=O	105 to 108 °C
CC(C)Nc1nc(Cl)nc(NC2CC2)n1	167 °C
COc1cc(C(N)=O)cc(Cl)n1	186 °C
CN(C)CCCN	-60 °C
CSCCC=O	-58 °C
O=C1CN=C(c2ccccc2)c2cc(Cl)ccc2N1CC1CC1	146 °C
Nc1cnccc1I	61 °C
CC1=C(C)C2=CC=C3C(O)=C(CC(C)O)C(=O)C(O)=C3C2(C)CC1=O (centres undefined)	187 °C
COC1=C(OC)/C(=C/CN=[N+]=[N-])OC1=O	55 to 57 °C
N[C@H](CCCCP(=O)(O)O)C(=O)O	215 to 220 °C
C[Si](C)(C)CC(=O)O	41 °C

SMILES	melting point
C=C1C(=O)OC2CC(C)C3C=CC(=O)C3(C)C(O)C12 (centres undefined)	168 °C
O=[N+]([O-])c1ccc(S(F)(F)(F)(F)F)cc1	38 °C
CC1(C)OC2C(CO)OC(n3cnc4c(N)ncnc43)C2O1 (centres undefined)	221 to 222 °C
CCCCCCCCCCCCCCCCCC[Si](OC)(OC)OC	15 °C
O=S(=O)(c1ccc(O)cc1)c1ccc(O)cc1	248 °C
CC1=C(C)C(=O)C=CC1=O	55 °C
CCC(C(=O)Nc1ccc(C)cc1)C1CCC(OC)CC1 (centres undefined)	144 °C
CC(C)CC=CC(C(=O)O)C1=CCC2(C)C(CCC3C4CCC(O)C4(C)CCC32)C1 (centres undefined)	200 °C
CCOc1ccc(Cl)cc1	21 °C
C=C1C(=O)C23C(OC(C)=O)CC4C(C)(C)CCC(OC(C)=O)C4(C)C2C(OC(C)=O)CC12OC(C)(C)OC23 (centres undefined)	259 °C
CCOC(=O)c1ccc(NC(=O)C(F)(F)C(F)(F)C(F)(F)C(F)(F)C(F)(F)C(F)(F)C(F)(F)C(F)(F)F)cc1	135 to 137 °C
Cc1cc2cc3cc(C)[nH]c3cc2[nH]1	> 170 °C
CC12CCC(O)CC1CCC1C3CCC(O)(C#Cc4ccccc4)C3CCC12 (centres undefined)	118 to 125 °C
Clc1cc2c(cc1Cl)Oc1ccccc1O2	163 °C
O=[N+]([O-])c1ccc(C=NO)o1	163 °C
OC1COC(O)C(O)C1O (centres undefined)	152 to 160 °C
Cc1n[nH]c(S)n1	275 to 277 °C
CSc1nc2[nH]c(=S)[nH]c(=O)c2n1C	289 to 290 °C
O=[N+]([O-])c1cccc2nsnc12	106 to 110 °C
CCCCCCCCc1ccc(C(=O)CCC(=O)O)cc1	91 to 93 °C

SMILES	melting point
CCN(CC)C(=O)SCc1ccc(Cl)cc1	3.3 °C
NC(=S)c1ccc2c(c1)CCO2	145 to 155 °C
CC(=O)N1CCNCC1	32 °C
CCc1cccc(CC)c1NC(=O)CN(CC(=O)O)CC(=O)O	187 to 190 °C
N#CC(=Cc1ccccc1)C(=O)O	175 °C
O=C1CCCCO1	-13 °C
CN1C(=O)C(O)N=C(c2ccccc2Cl)c2cc(Cl)ccc21 (centres undefined)	206 °C
CCC(O)(COC(N)=O)c1ccccc1 (centres undefined)	55 °C
CC(=O)OC1CC2C3CCC(C(C)CCCC(C)C)C3(C)CCC2C2(C)CCC(=O)CC12O (centres undefined)	161 °C
O=C(O)CC[C@H]1CC[C@H](CCC(=O)O)C1=O	121 °C
CCCCC#CCCCCC	-74.1 °C
CC(C)(C)NCCO	44 °C
Ic1ccc(-c2ccno2)cc1	139 to 140 °C
CC(C)(C)c1cc(C(=O)O)cc(C(C)(C)C)c1	161 °C
CC(Oc1ccc(OC(F)(F)F)cc1)C(=O)O (centres undefined)	76 to 78 °C
Oc1cc(O)cc(Cl)c1	118 °C
CC1CC(=O)C(C)(C)C1 (centres undefined)	-40.6 °C
O=C(Cl)c1ccsc1	50 to 54 °C
CC(C)(C)NCC(O)c1cc(O)cc(O)c1 (centres undefined)	119 °C
